pIC50: −log10 of the molar value. Numbered stars: 1 amine (or outer) side, 2 acyl side, 3 side chain; on linkers, the order of the positions; unused ones are H or OH. Square brackets hold non-standard residues; d marks the D form. Peptide text beside a SMILES is read from it. * marks the point of attachment. X1 = CC[C@@]1(O)C(=O)OCc2c1cc1n(c2=O)Cc2c-1nc1cc(F)c(C)c3c1c2C(N*)CC3; Hexanoyl(6-maleimido) = O=C1C=CC(=O)N1CCCCCC(=O)*; NHCH2OCH2CO = O=C(COCN[*:1])[*:2]
Key:
cathepsin B = cathepsin B (Homo sapiens, UniProt P07858); experiment: In vitro enzyme digestion of linker-drug conjugates; type: in vitro ADME; conditions: pH 5.0 to 7.0
Experimental: The linker-drug conjugate (LE14 and GGFG-Dxd) was co-incubated with cathepsin B in three different pH (5.0, 6.0, 7.0) buffers. Samples were taken at different time points and entered into a high-performance liquid chromatography-mass spectrometry instrument. The external standard method (with DXD as the external standard) was used to determine the release percentage of the drug.

[1] = Coupling of linker-drug conjugates with other/different antibodies; type: physicochemical; conditions: coupling with antibodies other than or including FDA016
NCI-N87 cell line = experiment: Killing activity on NCI-N87 before and after enzyme digestion by cathepsin B system; type: cell-based; conditions: NCI-N87, 144 hours, after cathepsin B system pH 5.0, 37° C., 4 hours; read-out: IC50 (based on SN-38 equivalent) After Enzyme Digestion
Experimental: NCI-N87 cell line was selected as the experimental cell lines. After the sample was incubated in cathepsin B system (100 mM sodium acetate-acetic acid buffer, 4 mM dithiothreitol, pH 5.0) at 37° C. for 4 hours, the obtained sample was diluted with culture medium to different concentrations. 8 concentrations (1.5 to 10-fold dilution) were set from 70 nM to 0.003 nM of SN-38 concentration. […] The IC50 value was calculated by reading the […] data after chemical luminescent staining with CellTiter-Glo® Luminescent Cell Viability Assay.

SMILES | Speed of enzyme digestion (cathepsin B) | Aggregation ratio when coupled with other/different antibodies [1] | Precipitation when coupled with other/different antibodies [1] | pIC50 (NCI-N87 cell line)
CC[C@@]1(O)C(=O)OCc2c1cc1n(c2=O)Cc2c-1nc1cc(F)c(C)c3c1c2C(NC(=O)COCNC(=O)CNC(=O)[C@H](Cc1ccccc1)NC(=O)CNC(=O)CNC(=O)CCCCCN1C(=O)C=CC1=O)CC3 (stereo partly shown) [GGFG-Dxd] ({Hexanoyl(6-maleimido)}-GGFG[NHCH2OCH2CO]-X1) | slow speed of enzyme digestion | high aggregation ratio | produced precipitation | 
CCc1c2c(nc3ccc(O)cc13)-c1cc3c(c(=O)n1C2)COC(=O)[C@]3(O)CC [SN-38, 7-ethyl-10-hydroxycamptothecin] |  |  |  | 8.13

From patent US20240398970A1, “B7-H3 TARGETING ANTIBODY-DRUG CONJUGATE, AND PREPARATION METHOD THEREFOR AND USE THEREOF” (priority 2020, published 2024)
